How the values were obtained:
HeLa = experiment: Cytotoxicity against human HeLa cells assessed as reduction in cell viability incubated for 48 hrs by MTT assay; type: functional, cell-based
HCT-116 = experiment: Cytotoxicity against human HCT-116 cells assessed as reduction in cell viability incubated for 48 hrs by MTT assay; type: functional, cell-based; conditions: HCT-116, 48 h
HepG2 = experiment: Cytotoxicity against human HepG2 cells assessed as reduction in cell viability incubated for 48 hrs by MTT assay; type: functional, cell-based; conditions: HepG2, 48 h
RAW264.7 [1] = experiment: Anti-inflammatory activity in mouse RAW264.7 cells assessed as inhibition of LPS-induced NO production incubated for 24 hrs by Griess reagent based assay; type: functional, cell-based; conditions: RAW264.7, 24 h
RAW264.7 [2] = experiment: Cytotoxicity against mouse RAW264.7 cells after 24 hrs by MTT assay; type: cell-based; conditions: raw264.7, 24 h

In the case of `C=C1C(=O)O[C@@H]2C[C@@H](C)[C@@H]3C=CC(=O)[C@@]3(C)[C@@H](OC(=O)C=C(C)C)[C@H]12`, the IC50 (HeLa) is reported as 2.6 µM, the IC50 (HCT-116) is reported as 0.8 µM and the IC50 (HepG2) is reported as 1.5 µM.
In the case of `C=C1C(=O)O[C@@H]2C[C@@H](C)[C@@H]3C=CC(=O)[C@@]3(C)[C@@H](OC(=O)/C(C)=C\C)[C@H]12`, the IC50 (HeLa) is reported as 0.8 µM, the IC50 (HCT-116) is reported as 2.9 µM and the IC50 (HepG2) is reported as 1.1 µM.
Compound `C=C1C(=O)O[C@@H]2C[C@@H](C)[C@@H]3C=CC(=O)[C@@]3(C)[C@@H](OC(=O)CC(C)C)[C@H]12` has an IC50 (HeLa) of 2 µM, an IC50 (HCT-116) of 3.3 µM and an IC50 (HepG2) of 2.6 µM. For the same compound, the IC50 (RAW264.7 [1]) was 0.2 µM.
With `C=C1C(=O)O[C@@H]2C[C@@H](C)[C@@H]3[C@@H](OC)CC(=O)[C@@]3(C)[C@@H](OC(=O)/C(C)=C\C)[C@H]12` the IC50 (HeLa) was > 10 µM, the IC50 (HCT-116) was > 10 µM and the IC50 (HepG2) was > 10 µM.
For `C=C1C(=O)O[C@H]2C[C@@H](C)[C@@H]3[C@@H](OC(=O)C(C)C)C[C@@H](OC(=O)CC(C)C)[C@@]3(C)C[C@H]12`, the IC50 (HeLa) was > 10 µM, the IC50 (HCT-116) was > 10 µM and the IC50 (HepG2) was > 10 µM. For the same compound, the IC50 (RAW264.7 [1]) was 0.2 µM.
For `CC(C)=CC(=O)O[C@H]1[C@@H]2[C@H](C)C(=O)O[C@@H]2C[C@@H](C)C2=CCC(=O)[C@]21C`, the IC50 (HeLa) was > 10 µM, the IC50 (HCT-116) was > 10 µM and the IC50 (HepG2) was > 10 µM.
With `C=C(C)C(=O)O[C@@H]1[C@@H]2[C@H](C[C@H](C)C3=CCC(=O)[C@@]31C)OC(=O)[C@@H]2C` the IC50 (HeLa) was > 10 µM, the IC50 (HCT-116) was > 10 µM and the IC50 (HepG2) was > 10 µM.
For `C=C1C(=O)O[C@H]2C[C@@H](C)[C@@H]3[C@@H](OC(=O)/C(C)=C/C)C[C@@H](OC(=O)/C(C)=C\C)[C@@]3(C)C[C@H]12`, the IC50 (HeLa) was 7.8 µM, the IC50 (HCT-116) was 6.6 µM and the IC50 (HepG2) was 4.1 µM.
With `C=C1C(=O)O[C@@H]2C[C@@H](C)[C@@H]3C=CC(=O)[C@@]3(C)[C@@H](OC(=O)C(C)C)[C@H]12` [HELENALINISOBUTYRATE] the IC50 (HeLa) was 1.4 µM, the IC50 (HCT-116) was 0.4 µM and the IC50 (HepG2) was 1.8 µM.
In the case of `C=C(C)C(=O)O[C@H]1[C@@H]2[C@H](C)C(=O)O[C@@H]2C[C@@H](C)[C@@H]2CCC(=O)[C@]21C`, the IC50 (HeLa) is reported as > 10 µM, the IC50 (HCT-116) is reported as > 10 µM and the IC50 (HepG2) is reported as > 10 µM.
In the case of `CC(C)=CC(=O)O[C@H]1[C@@H]2[C@H](C)C(=O)O[C@@H]2C[C@@H](C)[C@@H]2CCC(=O)[C@]21C`, the IC50 (HeLa) is reported as > 10 µM, the IC50 (HCT-116) is reported as > 10 µM and the IC50 (HepG2) is reported as > 10 µM.
In the case of `C=C1C(=O)O[C@H]2C[C@@H](C)[C@@H]3[C@@H](OC(=O)CC(C)C)C[C@@H](OC(=O)CC(C)C)[C@@]3(C)C[C@H]12`, the IC50 (HeLa) is reported as > 10 µM, the IC50 (HCT-116) is reported as 9.9 µM and the IC50 (HepG2) is reported as > 10 µM. For the same compound, the IC50 (RAW264.7 [1]) was 0.1 µM.
`C/C=C(/C)C(=O)O[C@H]1[C@@H]2[C@H](C)C(=O)O[C@@H]2C[C@@H](C)[C@@H]2C=CC(=O)[C@]21C` [BREVILIN A] was tested, and the IC50 (HeLa) was 9.2 µM, the IC50 (HCT-116) was > 10 µM and the IC50 (HepG2) was > 10 µM. The Activity (RAW264.7 [2]) was “Toxic”.
For `CCC(C)C(=O)O[C@H]1[C@@H]2[C@H](C)C(=O)O[C@@H]2C[C@@H](C)[C@@H]2C=CC(=O)[C@]21C` (stereo not given in full), the IC50 (HeLa) was 2.4 µM, the IC50 (HCT-116) was 7.3 µM and the IC50 (HepG2) was > 10 µM. The IC50 (RAW264.7 [1]) was 2.4 µM.
`C=C1C(=O)O[C@H]2C[C@@H](C)[C@@H]3[C@@H](OC(=O)C=C(C)C)C[C@@H](OC(=O)/C(C)=C\C)[C@@]3(C)C[C@H]12` was tested, and the IC50 (HeLa) was > 10 µM, the IC50 (HCT-116) was 9.4 µM and the IC50 (HepG2) was 3.5 µM.
`C=C1C(=O)O[C@H]2C[C@@H](C)[C@@H]3[C@@H](OC(=O)C(C)C)C[C@@H](OC(=O)/C(C)=C/C)[C@@]3(C)C[C@H]12` was tested, and the IC50 (HeLa) was > 10 µM, the IC50 (HCT-116) was > 10 µM and the IC50 (HepG2) was 8.7 µM.
`C=C1C(=O)O[C@H]2C[C@@H](C)[C@@H]3[C@@H](OC(=O)/C(C)=C\C)C[C@@H](OC(=O)CC(C)C)[C@@]3(C)C[C@H]12` showed an IC50 (HeLa) of 9.4 µM, an IC50 (HCT-116) of 5.2 µM and an IC50 (HepG2) of 2.9 µM. The IC50 (RAW264.7 [1]) was > 10 µM.
`C/C=C(\C)C(=O)O[C@H]1[C@@H]2[C@H](C)C(=O)O[C@@H]2C[C@@H](C)[C@@H]2C=CC(=O)[C@]21C` was tested, and the IC50 (HeLa) was > 10 µM, the IC50 (HCT-116) was > 10 µM and the IC50 (HepG2) was > 10 µM. The IC50 (RAW264.7 [1]) was > 10 µM.
In the case of `C/C=C(/C)C(=O)O[C@H]1[C@@H]2[C@H](C)C(=O)O[C@@H]2C[C@@H](C)[C@@H]2[C@H](OC)CC(=O)[C@]21C`, the IC50 (HeLa) is reported as > 10 µM, the IC50 (HCT-116) is reported as > 10 µM and the IC50 (HepG2) is reported as > 10 µM. For the same compound, the IC50 (RAW264.7 [1]) was > 10 µM.
For `C=C1C(=O)O[C@H]2C[C@@H](C)[C@@H]3[C@@H](OC(=O)C(C)C)C[C@@H](OC(=O)C(C)C)[C@@]3(C)C[C@H]12`, the IC50 (HeLa) was > 10 µM, the IC50 (HCT-116) was > 10 µM and the IC50 (HepG2) was 6.5 µM.
`C=C(C)C(=O)O[C@@H]1C[C@H](OC(=O)C(C)C)[C@H]2[C@H](C)C[C@@H]3OC(=O)C(=C)[C@H]3C[C@@]21C` was tested, and the IC50 (HeLa) was > 10 µM, the IC50 (HCT-116) was > 10 µM and the IC50 (HepG2) was > 10 µM. For the same compound, the IC50 (RAW264.7 [1]) was 3.9 µM.
With `C=C1C(=O)O[C@H]2C[C@@H](C)[C@@H]3[C@@H](OC(=O)C(C)C)C[C@@H](OC(=O)C=C(C)C)[C@@]3(C)C[C@H]12` the IC50 (HeLa) was > 10 µM, the IC50 (HCT-116) was 8.1 µM and the IC50 (HepG2) was 6.5 µM.
`C/C=C(/C)C(=O)O[C@H]1[C@@H]2[C@H](C)C(=O)O[C@@H]2C[C@@H](C)[C@@H]2[C@@H](OCC)CC(=O)[C@]21C` was tested, and the IC50 (HeLa) was > 10 µM, the IC50 (HCT-116) was > 10 µM and the IC50 (HepG2) was > 10 µM. For the same compound, the IC50 (RAW264.7 [1]) was > 10 µM.
In the case of `C=C1C(=O)O[C@@H]2C[C@@H](C)[C@@H]3C(OC(=O)/C(C)=C\C)=C[C@@]4(C)O[C@@]34C[C@H]12`, the IC50 (HeLa) is reported as > 10 µM, the IC50 (HCT-116) is reported as > 10 µM and the IC50 (HepG2) is reported as > 10 µM.
With `CC(C)CC(=O)O[C@H]1[C@@H]2[C@H](C)C(=O)O[C@@H]2C[C@@H](C)[C@@H]2C=CC(=O)[C@]21C` the IC50 (HeLa) was 5.5 µM, the IC50 (HCT-116) was 7.2 µM and the IC50 (HepG2) was > 10 µM. For the same compound, the IC50 (RAW264.7 [1]) was 1.7 µM.
`C/C=C(/C)C(=O)O[C@H]1[C@@H]2[C@H](C)C(=O)O[C@@H]2C[C@@H](C)[C@@H]2CCC(=O)[C@]21C` was tested, and the IC50 (HeLa) was > 10 µM, the IC50 (HCT-116) was > 10 µM and the IC50 (HepG2) was > 10 µM. For the same compound, the IC50 (RAW264.7 [1]) was > 10 µM.

— ChEMBL document CHEMBL4813948, “Cytotoxic and Anti-Inflammatory Sesquiterpenes from the Whole Plants of Centipeda minima” (J Nat Prod, 2021)
